# From publication PMC9103439, “Cyclo(His-Pro) Exerts Protective Carbonyl Quenching Effects through Its Open Histidine Containing Dipeptides” (Nutrients, 2022)
# Structures can show the parent of a compound that is named as a salt.
# How the values were obtained:
# [1] = Quenching activity towards HNE (residual HNE by HPLC-UV); settings: for HNE Quenching (%) 1 h: percentage of quenched HNE at 1 h; for HNE Quenching (%) 2 h: percentage of quenched HNE at 2 h; for HNE Quenching (%) 3 h: percentage of quenched HNE at 3 h
# Method: The reactivity towards HNE was tested for each peptide separately, by monitoring within 3 h from the incubation the residual HNE via HPLC-UV, as previously reported. Minor modifications of the method were implemented. A Kinetex C18 column (25 mm × 2.10 mm, particle size 2.6 µm, pore size 100 Å, Phenomenex, Castel Maggiore, Italy) was used instead and the elution of residual HNE was provided at 40 °C by 300 µL/min flow rate of aqueous ammonium acetate (10 mM) containing 20% acetonitrile. For active compounds, the formation of HNE adduct was confirmed by mass spectrometry. Samples were diluted in ACN/H2O/formic acid, 50/50/0.1, v/v/v solution down to a suitable concentration and pumped at 5 µL/min directly into ESI capillary (Finnigan Ion Max, Thermo Fisher Scientific, Rodano, Italy) and 3.5 kV voltage, 270 °C capillary temperature, 35 V capillary voltage and 50 V tube lens were applied to ensure sample nebulization. Spectra were acquired in positive ion mode for 5 × 10^5 ions per scan, by using a LTQ-Orbitrap XL-ETD analyzer (Thermo Fisher Scientific, Rodano, Italy) operating in a 150–700 m/z scan range at a resolution of (FWHM at m/z 400).
# [2] = Serum stability (LC-MS, MRM); assay type: in vitro ADME, human; settings: 37 °C; for half-life at 5 µM: human, read-out: Serum Stability t1/2
# Method: (§1) Serum stability was measured as previously described. Briefly, analytes were spiked separately in pre-heated (37 °C) serum aliquots down to a final concentration of 5 µM. The residual concentration of analyte was measured at the beginning and after 5, 15, 30, 60 and 120 min by means of LC-MS. Prior to analyses, hydrolysis was blocked at the desired time points diluting with 9 volumes of acetonitrile at 4 °C to provide protein precipitation. The analyte residual concentration was then measured in the supernatants obtained upon centrifugation. The same method was also used to evaluate the inhibition effect of CHP by incubating serum samples with equimolar amounts of carnosine and CHP.
# [3] = molecular target: T1, human serum carnosinase (hCN1) (Homo sapiens, UniProt Q96KN2); experiment: Inhibition effect of CHP on serum carnosinase (carnosine hydrolysis in serum); assay type: biochemical; settings: serum incubated with equimolar carnosine and CHP; decrease not statistically significant
# T1 construct: from tissue; host or cells: serum
# T1 sequence (Q96KN2 26-507): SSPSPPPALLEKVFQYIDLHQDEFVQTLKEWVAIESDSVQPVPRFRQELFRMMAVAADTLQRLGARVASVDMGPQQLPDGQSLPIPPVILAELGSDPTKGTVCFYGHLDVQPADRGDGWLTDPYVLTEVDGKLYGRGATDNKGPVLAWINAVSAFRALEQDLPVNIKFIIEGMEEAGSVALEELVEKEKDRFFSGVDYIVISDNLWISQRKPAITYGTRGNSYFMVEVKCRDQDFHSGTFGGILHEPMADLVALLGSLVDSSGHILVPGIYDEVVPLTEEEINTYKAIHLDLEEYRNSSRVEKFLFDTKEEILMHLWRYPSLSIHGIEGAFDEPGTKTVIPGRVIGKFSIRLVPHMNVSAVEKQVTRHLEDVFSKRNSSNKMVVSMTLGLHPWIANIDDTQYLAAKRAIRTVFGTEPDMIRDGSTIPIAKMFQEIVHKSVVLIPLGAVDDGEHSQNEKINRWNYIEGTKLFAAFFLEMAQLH
# Method: as §1
# [4] = design: method as in PMID 1424308; settings: cited from earlier work
SMILES,HNE Quenching (%) 1 h [1] [%],HNE Quenching (%) 2 h [1] [%],HNE Quenching (%) 3 h [1] [%],Serum Stability t1/2 (min) ([2]; 5 µM),retained carnosine hydrolytic activity [3] [%],half-life at 5 µM [2] [min],half-life in vivo [4] [min]
"O=C1NC(Cc2cnc[nH]2)C(=O)N2CCCC12 (centres unmarked) [CHP, Cyclo(His-Pro)]",2.42 ± 0.71,5.46 ± 0.78,8.09 ± 0.77,Stable,85 ± 5,–,–
"NC(Cc1cnc[nH]1)C(=O)N1CCCC1C(=O)O (centres unmarked) [HisPro, His-Pro]",−0.33 ± 0.45,−0.26 ± 0.53,3.54 ± 1.66,–,–,3.08,–
"NCCC(=O)N[C@@H](Cc1cnc[nH]1)C(=O)O [L-carnosine, reference compound]",17.04 ± 6.17,29.05 ± 4.33,40.40 ±3.73,–,–,1.17,–
"O=C(O)C(Cc1c[nH]cn1)NC(=O)C1CCCN1 [ProHis, L-Pro-L-His-OH dihydrochloride]",20.39 ± 1.14,36.94 ± 0.80,49.87 ± 1.06,–,–,33.4,–
"NC(=O)C(Cc1c[nH]cn1)NC(=O)C1CCCN1 [ProHis-NH2, L-Pro-L-His-NH2]",17.08 ± 1.11,27.66 ± 0.58,36.29 ± 1.08,–,–,128,–
"NC(=O)[C@@H]1CCCN1C(=O)[C@H](Cc1cnc[nH]1)NC(=O)[C@@H]1CCC(=O)N1 [TRH, thyrotropin-releasing hormone, reference compound]",2.31 ± 6.72,4.16 ± 6.16,6.17 ± 6.41,–,–,24.4,6.5
